In ChEMBL document CHEMBL1151657, “Flavonoids from the Wood of Salix caprea as Inhibitors of Wood-Destroying Fungi” (1985):

Tests used:
Assay type in all cases: functional
Coniophora puteana [1] = test: Antimicrobial activity against Coniophora puteana at 1% concentration after 60 mins by agar diffusion method
Trichoderma viride [2] = test: Antimicrobial activity against Trichoderma viride at 1% concentration after 60 mins by agar diffusion method
Sporotrichum [3] = test: Antimicrobial activity against Sporotrichum pulverulentum at 1% concentration after 60 mins by agar diffusion method
Coniophora puteana [4] = test: Antimicrobial activity against Coniophora puteana at 0.01% concentration after 60 mins by agar diffusion method
Sporotrichum [5] = test: Antimicrobial activity against Sporotrichum pulverulentum at 0.01% concentration after 60 mins by agar diffusion method
Coniophora puteana [6] = test: Antimicrobial activity against Coniophora puteana after 60 mins by agar diffusion method
Trichoderma viride [7] = test: Antimicrobial activity against Trichoderma viride after 60 mins by agar diffusion method
Sporotrichum [8] = test: Antimicrobial activity against Sporotrichum pulverulentum after 60 mins by agar diffusion method
[9] = tested on: Trichophyton mentagrophytes; test: Antimicrobial activity against Trichophyton mentagrophytes after 60 mins by agar diffusion method
Enterococcus faecalis = test: Antimicrobial activity against Streptococcus faecalis after 30 mins by agar diffusion method
Escherichia coli = test: Antimicrobial activity against Escherichia coli after 30 mins by agar diffusion method
Staphylococcus aureus = test: Antimicrobial activity against Staphylococcus aureus after 30 mins by agar diffusion method

Compound | inhibition zone (IZ) (Coniophora puteana [6]) [mm] | inhibition zone (IZ) (Trichoderma viride [7]) [mm] | inhibition zone (IZ) (Sporotrichum [8]) [mm] | other results
O=C1C2CC=CCC2C(=O)N1SC(Cl)(Cl)Cl (stereo unspecified) [CAPTAN] | – | – | – | inhibition zone (IZ) (Coniophora puteana [1]): >25 mm; inhibition zone (IZ) (Trichoderma viride [2]): 15 mm; inhibition zone (IZ) (Sporotrichum [3]): >25 mm; inhibition zone (IZ) (Coniophora puteana [4]): 10 mm; inhibition zone (IZ) (Sporotrichum [5]): 15 mm
O=[N+]([O-])c1c(Cl)c(Cl)c(Cl)c(Cl)c1Cl [PENTACHLORONITROBENZENE] | 10 | 10 | <10 | –
O=C1C[C@@H](c2ccc(O)cc2)Oc2cc(O)cc(O)c21 [NARINGENIN] | 10 | 10 | 10 | inhibition zone (IZ) [9]: 11 mm; inhibition zone (IZ) (Enterococcus faecalis): 10 mm; inhibition zone (IZ) (Escherichia coli): 8 mm; inhibition zone (IZ) (Staphylococcus aureus): 17.2 mm
O=C1c2c(O)cc(O)cc2O[C@H](c2ccc(O)c(O)c2)[C@H]1O [(+)-TAXIFOLIN] | – | 10 | – | –
O=C1c2c(O)cc(O)cc2O[C@H](c2ccc(O)cc2)[C@H]1O [DIHYDROKAEMPFEROL] | 10 | – | – | –
O=C1C[C@@H](c2ccc(O)cc2)Oc2cc(O[C@@H]3O[C@H](CO)[C@@H](O)[C@H](O)[C@H]3O)cc(O)c21 [PRUNIN] | – | – | 15 | –
Oc1cc(O)c2c(c1)O[C@H](c1ccc(O)c(O)c1)[C@@H](O)C2 [CIANIDANOL] | – | 10 | – | –
COc1ccc(C2Oc3cc(O)cc(O)c3C(=O)C2O)cc1 (stereo unspecified) [DIHYDROKAEMPFERIDE] | <10 | – | – | inhibition zone (IZ) (Staphylococcus aureus): 8 mm
